Measured values: article PMC10584170, “Machine learning-based phenotypic imaging to characterise the targetable biology of Plasmodium falciparum male gametocytes for the development of transmission-blocking antimalarials” (PLOS Pathogens, 2023)
Like-named read-outs stand apart in the source and are kept apart here.

Columns and labels:
[1] = system: P. falciparum male gametocytes; test: P. falciparum Dual Gamete Formation Assay (PfDGFA), male readout (exflagellation); type: cell-based, Plasmodium falciparum NF54; conditions: for HitlevelM: number of replicates with >50% inhibition in the male readout; for Selectivity Ratio M: HepG2 Tox50 versus male IC50; for IC50: PfDGFA, 24 h incubation with gametocytes before induction, exflagellation readout, read-out: Male IC50
Outline: (§1)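 First, day-14 P. falciparum NF54 gametocytes receive compound for 24 h at 37°C in 1% O2/3% CO2. Next, ookinete medium with Cy3 anti-Pfs25 triggers gametogenesis at 28°C and male exflagellation is imaged. Finally, after 24 h in the dark, Cy3-labelled females are imaged.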

[2] = system: P. falciparum female gametocytes; test: P. falciparum Dual Gamete Formation Assay (PfDGFA), female readout (Pfs25-positive female gametes); type: cell-based, Plasmodium falciparum NF54; conditions: for HitlevelF: number of replicates with >50% inhibition in the female readout; for Selectivity ratio F: HepG2 Tox50 versus female IC50; for IC50: PfDGFA, 24 h incubation with gametocytes before induction, female gamete readout, read-out: Female IC50
Outline: as §1

HepG2 cells = test: HepG2 cytotoxicity counter-screen; conditions: cytotoxic activity against HepG2 cells
[3] = 2µM, 24h preincubation with gametocytes prior to induction of gametogenesis, average of replicates
[4] = 2µM, 24h preincubation with gametocytes prior to induction of gametogenesis, replicate R1
[5] = 2µM, 24h preincubation with gametocytes prior to induction of gametogenesis, replicate R3
[6] = 2µM, 24h preincubation with gametocytes prior to induction of gametogenesis, replicate R4
[7] = PfDGFA at 2µM, 24h preincubation with gametocytes, average of replicates
[8] = PfDGFA at 2µM, 24h preincubation with gametocytes, replicate R1
[9] = PfDGFA at 2µM, 24h preincubation with gametocytes, replicate R3
[10] = PfDGFA at 2µM, 24h preincubation with gametocytes, replicate R4
[11] = Plasmodium falciparum, PfDGFA at 2µM, 24h preincubation with gametocytes, average of replicates, read-out: Average inhibition male (%)
[12] = Plasmodium falciparum, PfDGFA at 2µM, 24h preincubation with gametocytes, replicate R1, read-out: % inhibition male (individual replicates) R1
[13] = Plasmodium falciparum, PfDGFA at 2µM, 24h preincubation with gametocytes, replicate R2, read-out: % inhibition male (individual replicates) R2
[14] = Plasmodium falciparum, PfDGFA at 2µM, 24h preincubation with gametocytes, replicate R3, read-out: % inhibition male (individual replicates) R3
[15] = Plasmodium falciparum, PfDGFA at 2µM, 24h preincubation with gametocytes, replicate R4, read-out: % inhibition male (individual replicates) R4
[16] = Plasmodium falciparum, PfDGFA at 2µM, 24h preincubation with gametocytes, average of replicates, read-out: Average inhibition female (%)
[17] = Plasmodium falciparum, PfDGFA at 2µM, 24h preincubation with gametocytes, replicate R1, read-out: % inhibition female (individual replicates) R1
[18] = Plasmodium falciparum, PfDGFA at 2µM, 24h preincubation with gametocytes, replicate R2, read-out: % inhibition female (individual replicates) R2
[19] = Plasmodium falciparum, PfDGFA at 2µM, 24h preincubation with gametocytes, replicate R3, read-out: % inhibition female (individual replicates) R3
[20] = Plasmodium falciparum, PfDGFA at 2µM, 24h preincubation with gametocytes, replicate R4, read-out: % inhibition female (individual replicates) R4
[21] = 2µM, 24h preincubation with gametocytes, average of replicates
[22] = 2µM, 24h preincubation with gametocytes, replicate R1
[23] = 2µM, 24h preincubation with gametocytes, replicate R3
[24] = 2µM, 24h preincubation with gametocytes, replicate R4

SMILES | Selectivity Ratio M [1] | IC50 [1] [nM] | Selectivity ratio F [2] | IC50 [2] [nM] | Tox50 (HepG2 cells) [µM] | Average inhibition male (%) [1, 7] [%] | % inhibition male (individual replicates) R1 [1, 8] [%] | % inhibition male (individual replicates) R3 [1, 9] [%] | % inhibition male (individual replicates) R4 [1, 10] [%] | HitlevelM ([1]; 2µM) | Average inhibition female (%) [2, 7] [%] | % inhibition female (individual replicates) R1 [2, 8] [%] | % inhibition female (individual replicates) R3 [2, 9] [%] | % inhibition female (individual replicates) R4 [2, 10] [%] | HitlevelF ([2]; 2µM) | inhibition at 2 µM [1, 11] [%] | inhibition at 2 µM [1, 12] [%] | inhibition at 2 µM [1, 13] [%] | inhibition at 2 µM [1, 14] [%] | inhibition at 2 µM [1, 15] [%] | other results
CCc1c(CCNCCCC(C)CCNCCc2ccc(OC)c(OC)c2CC)ccc(OC)c1OC.Cl (centres unmarked) [TCMDC-132065] | 2.01 | 1950 | 0.73 | 5380 | 3.92 |  |  |  |  |  |  |  |  |  |  |  |  |  |  |  | Average inhibition male (%) [1, 3]: 50.4%; % inhibition male (individual replicates) R1 [1, 4]: 69.1%; % inhibition male (individual replicates) R3 [1, 5]: 65.3%; % inhibition male (individual replicates) R4 [1, 6]: 65.1%; HitlevelM ([1]; 2µM, 24h preincubation): 3; Average inhibition female (%) [2, 3]: 11.1%; % inhibition female (individual replicates) R1 [2, 4]: 14.0%; % inhibition female (individual replicates) R3 [2, 5]: -5.8%; % inhibition female (individual replicates) R4 [2, 6]: 27.9%; HitlevelF ([2]; 2µM, 24h preincubation): 0
COc1cccc(CCc2c(CCNCCCCCCNCCc3ccccc3)ccc(OC)c2OC)c1.Cl [TCMDC-132105] | 2.34 | 1200 | 4.54 | 620 | 2.82 | 79.5 | 90.7 | 81.0 | 99.1 | 3 | 52.1 | 47.4 | 59.7 | 72.0 | 2 |  |  |  |  |  | 
COc1ccc(CNC2CCN(C)CC2)cc1-c1ccc(S(=O)(=O)NCc2ccccc2)s1.O=C(O)C(F)(F)F [TCMDC-132253] | 3.9 | 1390 | 1.37 | 3960 | 5.43 | 82.6 | 86.4 | 70.7 | 89.6 | 4 | 28.1 | 31.4 | 13.9 | 24.4 | 0 |  |  |  |  |  | 
COc1ccc(CNC2CCN(C)CC2)cc1-c1ccc(S(=O)(=O)NCc2ccccc2)c(F)c1.O=C(O)C(F)(F)F [TCMDC-132262] | 1.94 | 1850 | 0.84 | 4280 | 3.59 | 74.3 | 68.8 |  | 79.4 | 3 | 25.6 | 21.9 | 30.7 | 17.0 | 0 |  |  |  |  |  | 
O=C(c1ccc(-c2cnc3[nH]cc(-c4ccc(C(=O)N5CCOCC5)cc4)c3c2)cc1)N1CCOCC1 [TCMDC-132781] | 66.32 |  | 2.9 |  | 28.99 |  |  |  |  | 4 |  |  |  |  | 0 | 77 | 90.7 | 89.1 | 77.8 | 50.2 | IC50 ([1]; Plasmodium falciparum): 440 nM; inhibition at 2 µM [2, 16]: 9.1%; inhibition at 2 µM [2, 17]: 7.2%; inhibition at 2 µM [2, 18]: 16.3%; inhibition at 2 µM [2, 19]: 1.6%; inhibition at 2 µM [2, 20]: 11.4%; IC50 ([2]; Plasmodium falciparum): > 10000 nM
CNCCNCc1ccc(-c2ccc(-c3nc4cccc(C)c4[nH]3)cc2)cc1.O=C(O)C(F)(F)F [TCMDC-132837] | 7.9 | 1670 | 1.52 | 8690 | 13.18 | 81.2 | 79.2 | 67.7 | 94.2 | 4 | 30.6 | 20.0 | 47.7 | 20.5 | 0 |  |  |  |  |  | 
CNCCNCc1ccc(-c2ccc(-c3nc4cc(C(F)(F)F)ccc4[nH]3)s2)cc1.O=C(O)C(F)(F)F [TCMDC-132838] | 9.9 | 1320 | 1.31 |  | 13.1 |  |  |  |  |  |  |  |  |  |  |  |  |  |  |  | Average inhibition male (%) [1, 21]: 96.4%; % inhibition male (individual replicates) R1 [1, 22]: 96.0%; % inhibition male (individual replicates) R3 [1, 23]: 93.3%; % inhibition male (individual replicates) R4 [1, 24]: 98.9%; Average inhibition female (%) [2, 21]: 23.9%; % inhibition female (individual replicates) R1 [2, 22]: 24.8%; % inhibition female (individual replicates) R3 [2, 23]: 17.6%; % inhibition female (individual replicates) R4 [2, 24]: 33.8%
FC(F)(F)c1ccc2[nH]c(-c3ccc(-c4cccc(CNCCN5CCNCC5)c4)cc3)nc2c1.O=C(O)C(F)(F)F [TCMDC-132864] | 12.52 |  | 3.99 |  | 20.55 |  |  |  |  | 4 |  |  |  |  | 0 | 82.4 | 79.2 | 89.7 | 65.9 | 94.9 | IC50 ([1]; Plasmodium falciparum): 1640 nM; inhibition at 2 µM [2, 16]: 20.5%; inhibition at 2 µM [2, 17]: 25.8%; inhibition at 2 µM [2, 18]: 24.6%; inhibition at 2 µM [2, 19]: -15.8%; inhibition at 2 µM [2, 20]: 47.4%; IC50 ([2]; Plasmodium falciparum): 5150 nM
FC(F)(F)c1ccc2[nH]c(-c3ccc(-c4ccc(CNCCN5CCNCC5)cc4)cc3)nc2c1.O=C(O)C(F)(F)F [TCMDC-132865] | 9.44 |  | 2.26 |  | 13.76 |  |  |  |  | 3 |  |  |  |  | 0 | 69.5 | 60.9 | 79.2 | 39.1 | 98.9 | IC50 ([1]; Plasmodium falciparum): 1460 nM; inhibition at 2 µM [2, 16]: 29.2%; inhibition at 2 µM [2, 17]: 27.7%; inhibition at 2 µM [2, 18]: 31%; inhibition at 2 µM [2, 19]: 31%; inhibition at 2 µM [2, 20]: 27.1%; IC50 ([2]; Plasmodium falciparum): 6080 nM
